Values after ≈ are worked out from the molar mass of the structure shown. Values joined by “and” are separate entries in the source; they are usually repeats but may differ in a detail not shown here. Identical values can stand only once.
How the values were obtained:
[1] = test system: lung carcinoma (A549) cell line; experiment: MTT assay against lung carcinoma (A549) cell line; type: cell-based, human; settings: for IC50 values, Lung carcinoma (A549): 48 h; for IC50: Homo sapiens, A549, 48 h
Text: (§1) In vitro inhibition activity of the newly synthesized series was investigated on cell viability according to the literature review described by Mohamed et al. (Mohamed et al. [2021b]). In a brief explanation of MTT assay employed herein. In vitro, toxicological MTT Kit has been used to perform an (3-[4,5-dimethylthiazole-2-yl]-2,5-diphenyltetrazolium bromide) to measure the cytotoxicity effect of a novel (3-(Furan-2-yl)pyrazol-4-yl) chalcones against A549 cell line. Lung carcinoma cell line A549 was seeded in microplate where the prepared chalcones solution were added to triplicates well. Incubation of plates was done at 37 °C for 48 h. The fresh […]. Lung cells treated with different range concentration of our series [[…]] were incubated, also untreated cells were used as a reference negative control. One percent antibiotic mixture was used, and after incubation. The positive control utilized here was 5-FU ([…]).

[2] = test system: normal lung (Wi38) cell line; experiment: MTT assay against normal lung (Wi38) cell line; type: cell-based; settings: Homo sapiens, WI-38, 48 h
Text: [Worded in the source for another cell line; this cell line is reported under the same test.] as §1

[3] = test system: P53; experiment: Real-time PCR of P53 expression in A549 cells; type: cell-based, human; settings: IC50 conc., 48 h, qPCR, untreated control = 1
Method: (§2) Total RNAfrom the compound 7b-, compound 7c-treated A549 cells, and untreated cells were extracted using the Qiagen RNAextraction Kit, Catalog # (74,104). 1 µg of RNAwas reverse transcribed into complementary DNA(cDNA) using High-Capacity cDNA Reverse Transcription Kit (Thermo Fisher scientific, ON, Canada). qPCR was performed using Bio RadSYBR Green qPCR master mix (Bio Rad, California, USA) in a Step One Plus Real-Time PCRSystem (Bio Rad, California, USA). The total reaction volume was 25 µL, 12.5 µL of SYBRgreen master mix, 1 µL of each primer (Bax, Bcl2, P53, CDK4) with 10 pmol/µL (Qiagen, CA, Germany), 2.5 µL of cDNA, and […] of RNAse free water. The thermal cycle of PCR started with an initial denaturation at 95 °C for 10 min, followed by 45 cycles at 94 °C for15 s, 65 °C for 30 s, and 56 °C for 30 s. The relative gene expression was determined using the method of 2^−ΔΔCtafter normalization to the expression of β-actin (Qiagen, CA, Germany) (10 pmol/µL). […]

[4] = test system: human caspase-9; experiment: ELISA of caspase-9 in A549 cell lysates; type: cell-based; settings: A549 cells, IC50 conc., 48 h, untreated control 1.49
Method: (§3) Elisa assay was performed to detect the concentration of human caspase-3, caspase-8, and caspase-9 in A549 cell culture lysates. The instructions were followed up according to the manuscript instructions described in the following kits: DRG® human Caspase-8 ELISA Kit, Catalogue # (EIA-4863), DRG® human Caspase-9 ELISA Kit, Catalogue # (EIA-4860), and Invitrogen human Caspase-3 Elisa Kit, Catalogue # KHO1091, respectively. All reagents, samples, and standards were prepared as described in the above ELISA kits. Briefly, the procedure was described as followed; the microwell strips were washed twice with wash buffer. A total of 100 μl of standard or samples were added to each well and incubated for 2 h at room temperature (18 to 25 °C). The microwell strips were emptied and washed three times with wash buffer. A total of 100 μl of prepared antibodyanti-rabbit-IgG-HRP) were added to each well for 1 h at room temperature. The step of washing was repeated three times and then, 100 μl of prepared TMB (tetramethyl-benzidine) substrate solution was pipetted to all wells and incubated for 10 min at room temperature. […] The absorbance of each microwell was read immediately on a spectrophotometer at a wavelength of 450 nm. The concentrations of the unknown samples and controls were determined from the standard curve which was plotted using curve fitting software.

[5] = test system: BAX; experiment: Real-time PCR of BAX expression in A549 cells; type: cell-based, human; settings: IC50 conc., 48 h, qPCR, untreated control = 1
Method: as §2

[6] = test system: human caspase-3; experiment: ELISA of caspase-3 in A549 cell lysates; type: cell-based; settings: A549 cells, IC50 conc., 48 h, untreated control 53.69
Method: as §3

[7] = test system: A549 cells; experiment: Flow-cytometric analysis of apoptosis (Annexin V-FITC/PI); type: cell-based, human; settings: IC50 conc., 48 h
Method: (§4) 10^6 of A549 cells were cultured in 60-mm Petri dishes for 24 h and then treated with compound 7batIC50concentrationfor 48 h. The untreated A549 cells were used as a negative control. After 48 h of incubation, A549 cells were centrifuged at1000 rpm for 5 min at 4 °C. The cells pellet were washed in phosphate-buffered saline (PBS) and then centrifuged at 1000 rpm for another 5 min. After discarding the supeRNAtant, the cells were collected in a single cell suspension and fixed in 70% ethanol on ice overnight. After the fixation step, cells were washed with 1 ml 1 × PBS. Finally, the cells pellet was incubated with a 200 µl 1 × propidium iodide (PI) mixture at room temperature in the dark for 30 min. Then, cells were subjected to an Epics XL-MCL flow cytometer (Beckman Coulter, Miami, FL) for DNA content analysis. Cells distribution at different phases was analysed by Multicycle software (Phoenix Flow Systems, San Diego, CA). Annexin V-FITC kit catalogue number (#K101-25) was used to detect the percentage of the apoptotic cells. About 10^6 of A549 cells were collected by centrifugation. Then, cells were washed in 500 µl of 1 × PBS. The cells were collected by centrifugation and then resuspended in the annexin V incubation reagent. The annexin V incubation reagent comprising of 10 μL binding buffer (10X) + 10 μL propidium iodide + 1 μL annexin V-FITC + 79 μL deionized water. The cells in 100 μL annexin V incubation reagent was incubated in dark at room temperature for 15 min (Ali et al. [2017]). Finally, the percentage of apoptotic cells was analyzed by flow cytometry using FITC signal detector (usually FL-1) and PI staining by the phycoerythrin emission signal detector (usually FL-2).

[8] = test system: A549 cells; experiment: Flow-cytometric analysis of cell cycle (PI); type: cell-based, human; settings: IC50 conc., 48 h
Method: as §4

[9] = test system: human caspase-8; experiment: ELISA of caspase-8 in A549 cell lysates; type: cell-based; settings: A549 cells, IC50 conc., 48 h, untreated control 0.375
Method: as §3

[10] = test system: CDK4; experiment: Real-time PCR of CDK4 expression in A549 cells; type: cell-based, human; settings: IC50 conc., 48 h, qPCR, untreated control = 1
Method: as §2

[11] = test system: Bcl2; experiment: Real-time PCR of Bcl2 expression in A549 cells; type: cell-based, human; settings: IC50 conc., 48 h, qPCR, untreated control = 1
Method: as §2

IC50 values, Lung carcinoma (A549) [1] [µg/mL]	melting point [°C]	IC50 [1] [µg/mL]	SMILES	IC50 [2] [µg/mL]	other results
147.29 (≈ 1130 µM)			O=c1[nH]cc(F)c(=O)[nH]1 [5-FU, reference compound]		
	138 to 140	42.7 (≈ 110 µM)	Cc1c(C(=O)/C=C/c2ccco2)c(-c2ccco2)nn1-c1ccc([N+](=O)[O-])cc1 [7a, (E)-3-(Furan-2-yl)-1-(3-(furan-2-yl)-5-methyl-1-(4-nitrophenyl)-1H-pyrazol-4-yl)prop-2-en-1-one]	68 (≈ 175 µM)	
20.05 (≈ 49.5 µM)	142 to 144	20 (≈ 49.3 µM)	Cc1c(C(=O)/C=C/c2cccs2)c(-c2ccco2)nn1-c1ccc([N+](=O)[O-])cc1 [7b, (E)-1-(3-(Furan-2-yl)-5-methyl-1-(4-nitrophenyl)-1H-pyrazol-4-yl)-3-(thiophen-2-yl)prop-2-en-1-one]	108 (≈ 267 µM)	Gene expression (fold change/ β-actin), P53 [3]: 4.69 fold change; Enzyme activity ± SD, Caspase 9 [4]: 15.76 ± 0.06 pg/mL; Gene expression (fold change/ β-actin), BAX [5]: 7.93 fold change; Enzyme activity ± SD, Caspase 3 [6]: 495.4 pg/mL and 495.4 ± 6.52 pg/mL; Apoptosis % % Late ([7]; untreated control 0.11): 21.24%; Apoptosis % % Early ([7]; untreated control 0.34): 3.69%; Necrosis% ([7]; untreated control 1.26): 17.23%; Apoptosis % %Total ([7]; untreated control 1.71): 42.16%; Cell cycle arrest (phase) [8]: cell cycle arrest at G0/G1 and S phases; G2/M % (DNA content) ([8]; untreated control 15.63): 4.21%; S % (DNA content) ([8]; untreated control 37.15): 43.42%; G0/G1% (DNA content) ([8]; untreated control 47.22): 52.37%; Enzyme activity ± SD, Caspase 8 [9]: 1.575 ± 0.05 pg/mL; Gene expression (fold change/ β-actin), CDK4 [10]: 0.39 fold change; Gene expression (fold change/ β-actin), Bcl2 [11]: 0.44 fold change
	198 to 200	13.9 (≈ 34.6 µM)	Cc1c(C(=O)/C=C/c2ccncc2)c(-c2ccco2)nn1-c1ccc([N+](=O)[O-])cc1 [7c, (E)-1-(3-(Furan-2-yl)-5-methyl-1-(4-nitrophenyl)-1H-pyrazol-4-yl)-3-(pyridin-4-yl)prop-2-en-1-one]	18.2 (≈ 45.5 µM)	Gene expression (fold change/ β-actin), P53 [3]: 2.32 fold change; Enzyme activity ± SD, Caspase 9 [4]: 11.2 pg/mL and 11.2 ± 0.52 pg/mL; Gene expression (fold change/ β-actin), BAX [5]: 4.78 fold change; Enzyme activity ± SD, Caspase 3 [6]: 377.2 pg/mL and 377.2 ± 6.04 pg/mL; Enzyme activity ± SD, Caspase 8 [9]: 1.042 pg/mL and 1.042 ± 0.02 pg/mL; Gene expression (fold change/ β-actin), CDK4 [10]: 0.54 fold change; Gene expression (fold change/ β-actin), Bcl2 [11]: 0.61 fold change
76.52 (≈ 141 µM)	168 to 170	76.5 (≈ 141 µM)	Cc1c(C(=O)/C=C/c2nn(-c3ccccc3)cc2-c2ccccc2)c(-c2ccco2)nn1-c1ccc([N+](=O)[O-])cc1 [7d, (E)-3-(1,4-Diphenyl-1H-pyrazol-3-yl)-1-(3-(furan-2-yl)-5-methyl-1-(4-nitrophenyl)-1H-pyrazol-4-yl)prop-2-en-1-one]	261 (≈ 483 µM)	
	248 to 250	217 (≈ 391 µM)	Cc1ccc(-c2cn(-c3ccccc3)nc2/C=C/C(=O)c2c(-c3ccco3)nn(-c3ccc([N+](=O)[O-])cc3)c2C)cc1 [7e, (E)-1-(3-(Furan-2-yl)-5-methyl-1-(4-nitrophenyl)-1H-pyrazol-4-yl)-3-(1-phenyl-4-(p-tolyl)-1H-pyrazol-3-yl)prop-2-en-1-one]	296 (≈ 532 µM)	
	232 to 234	238 (≈ 416 µM)	COc1ccc(-c2cn(-c3ccccc3)nc2/C=C/C(=O)c2c(-c3ccco3)nn(-c3ccc([N+](=O)[O-])cc3)c2C)cc1 [7f, (E)-1-(3-(Furan-2-yl)-5-methyl-1-(4-nitrophenyl)-1H-pyrazol-4-yl)-3-(4-(4-methoxyphenyl)-1-phenyl-1H-pyrazol-3-yl)prop-2-en-1-one]	296 (≈ 518 µM)	
	242 to 244	251 (≈ 437 µM)	Cc1c(C(=O)/C=C/c2nn(-c3ccccc3)cc2-c2ccc(Cl)cc2)c(-c2ccco2)nn1-c1ccc([N+](=O)[O-])cc1 [7g, (E)-3-(4-(4-Chlorophenyl)-1-phenyl-1H-pyrazol-3-yl)-1-(3-(furan-2-yl)-5-methyl-1-(4-nitrophenyl)-1H-pyrazol-4-yl)prop-2-en-1-one]	379 (≈ 658 µM)	

SMILES	IC50 values, Lung carcinoma (A549) [1] [µg/mL]	melting point [°C]	IC50 [1] [µg/mL]	IC50 [2] [µg/mL]	other results
Cc1c(C(=O)/C=C/c2nn(-c3ccccc3)cc2-c2ccc([N+](=O)[O-])cc2)c(-c2ccco2)nn1-c1ccc([N+](=O)[O-])cc1 [7h, (E)-1-(3-(Furan-2-yl)-5-methyl-1-(4-nitrophenyl)-1H-pyrazol-4-yl)-3-(4-(4-nitrophenyl)-1-phenyl-1H-pyrazol-3-yl)prop-2-en-1-one]		242	211 (≈ 360 µM)	224 (≈ 382 µM)	

Source: PMC10042774, “Theoretical and molecular mechanistic investigations of novel (3-(furan-2-yl)pyrazol-4-yl) chalcones against lung carcinoma cell line (A549)” (Naunyn-Schmiedeberg's Archives of Pharmacology, 2022)
